Source: patent US10976310B2, “Ligand identification by co-fractionation” (MAX-PLANCK-GESELLSCHAFT ZUR FÖRDERUNG DER WISSENSCHAFTEN …, priority 2016, dated 2021)
“And” between values parts separate entries of the source, which are not always exact repeats. Equal entries are not always repeated.

Assays:
TIA1 = target: T1, TIA1 (Homo sapiens, UniProt P31483); assay: MST measurement of ligand binding to recombinant TIA1; conditions: recombinant TIA1, n=3
T1 construct: purchased Origene (Herford, Germany)
T1 sequence (P31483 1-386): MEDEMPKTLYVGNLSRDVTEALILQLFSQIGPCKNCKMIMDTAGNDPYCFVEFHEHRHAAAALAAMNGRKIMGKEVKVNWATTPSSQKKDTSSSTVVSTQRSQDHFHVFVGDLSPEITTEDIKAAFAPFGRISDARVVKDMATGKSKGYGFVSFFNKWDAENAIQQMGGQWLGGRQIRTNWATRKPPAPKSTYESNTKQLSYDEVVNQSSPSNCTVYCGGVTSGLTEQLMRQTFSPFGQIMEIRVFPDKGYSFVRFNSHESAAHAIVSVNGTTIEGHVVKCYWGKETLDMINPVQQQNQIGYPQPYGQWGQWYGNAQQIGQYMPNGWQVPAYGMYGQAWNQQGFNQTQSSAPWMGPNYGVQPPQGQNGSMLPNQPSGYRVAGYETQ
Experimental: (§1) Expecting such a basic role of 2′,3′-cAMP to be conserved, we performed similar analysis with TIA1, the human functional homolog of Rbp47b. TIA1 was labeled and its interaction with 2′,3′-cAMP was determined using MST.
TIA1 protein was purchased from Origene (Herford, Germany). Rbp47b was cloned as a C-terminal GFP fusion (to increase protein solubility) into the E. coli expression vector pDEST14 containing His6-tag at the N-terminal of the Gateway (Karlsruhe, Germany) cassette. Rosetta cells expressing His6-Rbp47b-GFP were grown at 28° C. overnight and next day were moved to Terrific Broth medium supplied with 1% sucrose and relevant antibiotics. Cultures at OD 0.4 were induced by addition of 0.1 mM IPTG and transferred to 16° C. for overnight incubation.
MST measurements were performed using a Monolith NT.115 instrument (NanoTemper, München, Germany). Capillaries were loaded into the instrument as sets of 13-16 point ligand titrations. Proteins (Rb47b and TIA1) were labeled in phosphate buffer (PBS) using Monolith™ protein labeling kit RED-NHS (amine reactive; MO-L001) according to the manufacturers instruction. Excitation was optimized by varying the LED power to yield emission intensities above 200 AU, corresponding to 10-50 nM labeled protein. Monolith power was set to 60%. Ligands [2′,3′-cAMP (Sigma A9376)] and [3′,5′-cAMP (Sigma A6885)] were dissolved in PBS. […]

TIA1 self-assembly = target: T2, TIA1 self-assembly (Homo sapiens, UniProt P31483); assay: MST measurement of TIA1 self-assembly; format: binding; conditions: 500 μM 2′,3′-cAMP; in its absence Kd=36.28 nM (36 nM); read-out: Kd of TIA1 self-assembly in the presence of the ligand
T2 construct: purchased Origene (Herford, Germany)
T2 sequence (P31483 1-386): T1 sequence (P31483 1-386)
Experimental: as §1
MST measurements were performed using a Monolith NT.115 instrument (NanoTemper, München, Germany). Capillaries were loaded into the instrument as sets of 13-16 point ligand titrations. Proteins (Rb47b and TIA1) were labeled in phosphate buffer (PBS) using Monolith™ protein labeling kit RED-NHS (amine reactive; MO-L001) according to the manufacturers instruction. Excitation was optimized by varying the LED power to yield emission intensities above 200 AU, corresponding to 10-50 nM labeled protein. Monolith power was set to 60%. Ligands [2′,3′-cAMP (Sigma A9376)] and [3′,5′-cAMP (Sigma A6885)] were dissolved in PBS. 0.5% Tween and premium coated capillaries were used to prevent sticking. Non-labeled TIA1 and Rbp47b were used as ligands in the self-assembly experiments. MO Affinity Analysis software was used to analyze (Kd calculation) and visualize the data. Presented data are from 2-3 technical replicates.

Rbp47b = target: T3, Rbp47b (Arabidopsis thaliana, UniProt Q0WW84); assay: MST measurement of ligand binding to recombinant Rbp47b; conditions: His6-Rbp47b from E. coli, n=3
T3 sequence (Q0WW84 1-435): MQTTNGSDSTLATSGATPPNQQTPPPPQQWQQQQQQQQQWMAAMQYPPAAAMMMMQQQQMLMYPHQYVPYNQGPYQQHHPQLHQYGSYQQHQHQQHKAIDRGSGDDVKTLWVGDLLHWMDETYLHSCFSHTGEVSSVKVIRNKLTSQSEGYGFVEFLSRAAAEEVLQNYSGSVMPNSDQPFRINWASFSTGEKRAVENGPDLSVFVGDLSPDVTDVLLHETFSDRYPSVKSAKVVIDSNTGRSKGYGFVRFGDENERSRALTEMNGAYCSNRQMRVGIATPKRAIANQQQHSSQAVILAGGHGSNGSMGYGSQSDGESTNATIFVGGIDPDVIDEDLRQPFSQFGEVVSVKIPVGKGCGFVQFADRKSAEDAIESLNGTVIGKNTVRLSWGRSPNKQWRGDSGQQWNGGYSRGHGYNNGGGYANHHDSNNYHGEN
Description: We therefore attempted to determine the in vitro binding affinity biophysically using micro-scale thermophoresis (MST) (Jerabek-Willemsen et al. (2011) Molecular interaction studies using microscale thermophoresis. Assay Drug Dev Technol 9: 342-353). MST exploits the effect of size, charge, and hydration shell on the movement of molecules in a temperature gradient. Complex formation resulting in alteration of at least one of the three parameters leads to differential movement, from which the binding affinity can be determined. For the purpose of the MST experiment, Rbp47b was expressed in and purified from E. coli. […] The measured Kd value also corresponds to the ˜20 μM concentration of 2′,3′-cAMP measured in the native Arabidopsis lysate (FIG. 11B).
TIA1 protein was purchased from Origene (Herford, Germany). Rbp47b was cloned as a C-terminal GFP fusion (to increase protein solubility) into the E. coli expression vector pDEST14 containing His6-tag at the N-terminal of the Gateway (Karlsruhe, Germany) cassette. […]
Next day, cells were disrupted with an Avestin (Mannheim, Germany) EmulsiFlex C3 homogenizer and the protein was purified using imidazole-gradient purification in Ni-NTA agarose (Qiagen 34080, Hilden, Germany). […] Protein purity was assessed by SDS-PAGE and protein identification was done using western blot using anti-His6 antibodies. […]

With `Nc1ncnc2c1ncn2[C@@H]1O[C@H](CO)[C@H]2OP(=O)(O)O[C@H]21` [2′,3′-cAMP] the Kd (TIA1) was 217 µM, the Kd (TIA1 self-assembly) was 20.6 nM and 20 nM and the Kd (Rbp47b) was 1020 nM and 1000 nM.
